According to paper PMC5858925, “Mechanochemical coupling and bi-phasic force-velocity dependence in the ultra-fast ring ATPase SpoIIIE” (eLife, 2018):

Molecular target: T1, SpoIIIE (Bacillus subtilis, UniProt P21458)
T1 construct: recombinant SpoIIIE, homo-hexamer, immobilized on polystyrene beads
Experiment: optical tweezers, pause-free DNA translocation velocity vs [ATP], Michaelis-Menten fit
Type: biochemical
Conditions: 0.25-5 mM ATP; 5 pN opposing force; dsDNA track; 5 µM ADP and 5 µM Pi

T1 sequence (P21458 whole entry): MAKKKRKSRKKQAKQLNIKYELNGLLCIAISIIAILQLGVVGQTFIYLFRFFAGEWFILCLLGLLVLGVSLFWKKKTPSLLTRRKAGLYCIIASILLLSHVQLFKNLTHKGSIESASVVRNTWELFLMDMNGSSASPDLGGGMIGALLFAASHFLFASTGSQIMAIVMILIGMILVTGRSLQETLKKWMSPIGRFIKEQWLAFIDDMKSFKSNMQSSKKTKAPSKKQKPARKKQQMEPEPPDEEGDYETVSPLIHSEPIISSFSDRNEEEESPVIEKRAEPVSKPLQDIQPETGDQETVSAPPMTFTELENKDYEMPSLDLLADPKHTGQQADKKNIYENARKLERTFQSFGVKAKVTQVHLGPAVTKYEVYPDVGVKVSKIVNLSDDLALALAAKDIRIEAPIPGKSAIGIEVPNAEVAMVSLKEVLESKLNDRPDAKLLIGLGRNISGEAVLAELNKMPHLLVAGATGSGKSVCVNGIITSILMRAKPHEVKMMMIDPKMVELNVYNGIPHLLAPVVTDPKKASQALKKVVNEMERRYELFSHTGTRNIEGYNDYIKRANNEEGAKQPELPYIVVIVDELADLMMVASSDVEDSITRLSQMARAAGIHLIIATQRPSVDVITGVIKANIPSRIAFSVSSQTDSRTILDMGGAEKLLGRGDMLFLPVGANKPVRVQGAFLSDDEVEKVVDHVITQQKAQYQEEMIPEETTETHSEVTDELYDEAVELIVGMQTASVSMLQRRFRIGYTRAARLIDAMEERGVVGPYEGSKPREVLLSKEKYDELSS

`Nc1ncnc2c1ncn2[C@@H]1O[C@H](COP(=O)(O)OP(=O)(O)OP(=O)(O)O)[C@@H](O)[C@H]1O` [ATP] was tested. Which KM did it give?
Its KM is “Although both Vmax and KM decrease with force, Vmax/KM is largely force-independent”.
